Measured values as given in patent US8822692B2, “Diterpenoid derivatives endowed of biological properties” (SIGMA-TAU Industrie Farmaceutiche Riunite S.p.A., priority 2010, dated 2014).
Marks after values point to notes of the source that are not given here.

Legend:
Type in all cases: in vivo, rat
[1] = tested on: Ouabain-Hypertensive Rats (OHR); test: Anti-hypertensive effect in ouabain-hypertensive rats (OHR), six week oral treatment; conditions: six weeks
Protocol: (§1) Anti-hypertensive property of various derivatives were looked at in vivo in three animal models of hypertension (i.e., mutant α-adducin congenic rats, ouabain-hypertensive rats and Milan hypertensive rats).
Hypertension was provoked by subcutaneous ouabain infusion (15 μg/kg/day) in normotensive rats as already described (Ferrari P., et al., J. Pharmacol. Exp. Ther., 1998, 285, 83).

[2] = tested on: Milan Hypertensive Rats (MHS); test: Anti-hypertensive effect in Milan hypertensive rats (MHS), six week oral treatment; conditions: for effect on SBP in MHS rats (in words): at the dose tested; for SBP / HR: oral gavage 10 μg/kg/day, six weeks; for SBP: vehicle 169 (experiment A), 164 (experiment B); for HR: vehicle 348 (experiment A), 363 (experiment B)
Description: as §1
Milan hypertensive rats is a rat model of genetic hypertension sustained by α-adducin mutation and increased circulating levels of endogenous ouabain (Ferrari P., et al., Hypertension: Pathophysiology, Diagnosis and Management, (Volume 1). Laragh J H and Brenner B M (Eds.), Raven Press Publishers, New York, USA, 1261-1279, (1995).
The compounds were administered by oral gavage (10 μg/kg/day) for six weeks.

[3] = tested on: rats bearing an α-adducin mutation (NA strain); test: Anti-hypertensive effect in mutant α-adducin congenic rats (NA), six week oral treatment; conditions: six weeks; for SBP: vehicle 164.4; for HR: vehicle 412
Protocol: Anti-hypertensive property of various derivatives were looked at in vivo in three animal models of hypertension (i.e., mutant α-adducin congenic rats, ouabain-hypertensive rats and Milan hypertensive rats). The compound of example 4 was administered by oral gavage at various doses for six weeks to rats bearing an α-adducin mutation (NA strain). Such mutation leading to hypertension and organ complication (Bianchi G., et al., Proc. Natl. Acad. Sci., 1994, 91, 3999) was obtained by introgressing a segment of chromosome 14 containing the locus of α-adducin from Milan Hypertensive rats (MHS), having the mutant variant, into Milan Normotensive rats (MNS), carrying the wild type α-adducin variant (Tripodi G., et al., Biochem. Biophys. Res. Commun., 2004, 324, 562).

[4] = tested on: OHR rats; test: Urinary protein excretion and renal function in OHR rats
Protocol: The effect of the compound of example 4 on urinary protein excretion was investigated. Increased levels of circulating endogenous ouabain not only associate with hypertension but also may affect renal function and increase the risk of renal failure and proteinuria (Stella P., et al., J. Int. Med., 2008, 263, 274) which represent major organ complications associated to hypertension.
OHR rats were orally treated with the compound of example 4 at 0.1 μg/kg/day for 6 weeks. At the end of the treatment, rats were allocated in single metabolic cages for 24 h urine collection.
Proteinuria and urinary creatinine were measured by commercial kits (Sentinel). Rats were sacrificed and blood was collected for plasma creatinine measurement.

[5] = oral gavage 1 μg/kg/day once a day, experiment A, vehicle 173
[6] = oral gavage 1 μg/kg/day once a day, experiment A, vehicle 387
[7] = oral gavage 0.1 μg/kg/day once a day, experiment A, vehicle 173
[8] = oral gavage 0.1 μg/kg/day once a day, experiment A, vehicle 387

Structure (SMILES): CC(C)c1ccc2c(c1)CCC1C(C)(/C=C\CCCN)CCCC21C.O=C(O)/C=C/C(=O)O (stereo not shown) [Example 23, (Z)-15-(4-Aminobutyliden)-13-isopropylpodocarpa-8,11,13-triene fumarate]
- SBP [1, 5]: 159** mmHg
- HR [1, 6]: 370 beats/min

Structure (SMILES): CC(C)c1ccc2c(c1)C(=O)C[C@H]1[C@](C)(/C=N/OCCN)CCC[C@]21C.O=C(O)/C=C/C(=O)O [Example 12, (E)-15-(2-Aminoethoxyimino)-13-isopropylpodocarpa-8,11,13-triene-7-one fumarate]
- SBP ([1]; oral gavage 10 μg/kg/day once a day, experiment B, vehicle 171): 156** mmHg
- HR ([1]; oral gavage 10 μg/kg/day once a day, experiment B, vehicle 377): 380 beats/min
- effect on SBP in MHS rats (in words) [2]: significantly reduced SBP
- SBP [2]: 161* mmHg
- HR [2]: 347 beats/min

Structure (SMILES): CC(C)c1ccc2c(c1)CCC1C(C)(C=NOC3CCNCC3)CCCC21C.O=C(O)C=CC(=O)O (stereo not shown) [Example 6, (E)-15-(4-Piperidinyloxyimino)-13-isopropylpodocarpa-8,11,13-triene fumarate]
- SBP [1, 5]: 166 mmHg
- HR [1, 6]: 392 beats/min

Structure (SMILES): CC(C)c1ccc2c(c1)CCC1C(C)(/C=N/O[C@@H]3CCNC3)CCCC21C.O=C(O)/C=C/C(=O)O (stereo partly drawn) [Example 4, (E)-15-((R)-3-Pyrrolidinyloxyimino)-13-isopropylpodocarpa-8,11,13-triene fumarate]
- SBP ([3]; oral gavage 1 μg/kg/day): 150.6* mmHg
- HR ([3]; oral gavage 1 μg/kg/day): 415 beats/min
- SBP ([3]; oral gavage 10 μg/kg/day): 150.6* mmHg
- HR ([3]; oral gavage 10 μg/kg/day): 425 beats/min
- SBP ([3]; oral gavage 100 μg/kg/day): 147.5** mmHg
- HR ([3]; oral gavage 100 μg/kg/day): 421 beats/min
- urinary protein excretion in OHR rats (in words) ([4]; 0.1 μg/kg/day): significantly reduced the urinary protein excretion
- Urinary creatinine ([4]; oral 0.1 μg/kg/day, 6 weeks, 24 h urine, OHR vehicle 33.7, saline controls 36.1): 35.6 mg/24 h
- Proteinuria ([4]; oral 0.1 μg/kg/day, 6 weeks, 24 h urine, OHR vehicle 51.6 ± 5, saline controls 35.6): 42** mg/24 hr
- Plasma creatinine ([4]; oral 0.1 μg/kg/day, 6 weeks, OHR vehicle 3.51, saline controls 3.1): 3.59 mg/dL
- SBP [1, 7]: 157** mmHg
- HR [1, 8]: 382 beats/min
- SBP [1, 5]: 153** mmHg
- HR [1, 6]: 380 beats/min
- effect on SBP in MHS rats (in words) [2]: not effective on SBP

Structure (SMILES): CC(N)CCCCC1(C)CCCC2(C)c3ccc(C(C)C)cc3CCC12.O=C(O)/C=C/C(=O)O (stereo not shown) [Example 26, 15-(4-Aminopentyl)-13-isopropylpodocarpa-8,11,13-triene fumarate]
- SBP [1, 5]: 164 mmHg
- HR [1, 6]: 374 beats/min

Structure (SMILES): CC(C)c1ccc2c(c1)CCC1C(C)(CCCCCN)CCCC21C.O=C(O)/C=C/C(=O)O (stereo not shown) [Example 25, 15-(4-Aminobutyl)-13-isopropylpodocarpa-8,11,13-triene fumarate]
- SBP [1, 7]: 164 mmHg
- HR [1, 8]: 395 beats/min

Structure (SMILES): CC(C)c1ccc2c(c1)CCC1C(C)(/C=N/O[C@H]3CCNC3)CCCC21C.O=C(O)/C=C/C(=O)O (stereo partly drawn) [Example 5, (E)-15-((S)-3-Pyrrolidinyloxyimino)-13-isopropylpodocarpa-8,11,13-triene fumarate]
- SBP [1, 7]: 154** mmHg
- HR [1, 8]: 390 beats/min
- SBP [2]: 155* mmHg
- HR [2]: 367 beats/min

Structure (SMILES): CC(C)c1ccc2c(c1)CCC1C(C)(COCCCN)CCCC21C.O=C(O)/C=C/C(=O)O (stereo not shown) [Example 27, 15-(3-Aminopropoxy)-13-isopropylpodocarpa-8,11,13-triene fumarate]
- SBP [1, 5]: 156** mmHg
- HR [1, 6]: 390 beats/min
- effect on SBP in MHS rats (in words) [2]: significantly reduced SBP
- SBP [2]: 156* mmHg
- HR [2]: 367 beats/min
